The results in this text go back to patent US11566007B2, “Ras inhibitors” (Revolution Medicines, Inc., priority 2019, dated 2023).

In assay [1] the test system is NCI-H358 cells (K-Ras G12C). Put plainly: Potency assay: pERK in NCI-H358 cells. Format: cell-based, human. The settings on record: Homo sapiens, NCI-H358; H358 KRAS G12C; read-out: pERK EC50. Summed up: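 Compounds are dosed as ten 3-fold dilutions from a 10 mM DMSO stock, in duplicate, and left on cells for 4 h at 37 °C, 5% CO2. Phospho-ERK1/2 is then quantified by AlphaLISA SureFire Ultra or In-Cell Western, and IC50 is derived from a 4-parameter sigmoid against log concentration.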

Assay [2] relates to NCI-H358 (K-Ras G12C). Put plainly: CellTiter-Glo cell viability assay, NCI-H358. Type of assay: cell-based, human. Conditions: Homo sapiens, NCI-H358, 120 h, NCI-H358, 5-day treatment; class symbols; read-out: Additional H358 Cell Viability assay data (K-Ras G12C, IC50). The method, boiled down: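 Luminescent viability readout on day 5 after direct compound addition to plated cells; plates sat ~30 min at room temperature before reading. Values expressed as percent of mean DMSO signal, curves fit with a four-parameter logistic model.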

Assay [3] concerns the target KRAS G12D (Homo sapiens (Human), UniProt P01116+P62937, G12D). As to the kind of experiment: Ras-Raf (BRAF RBD) disruption / FRET / MOA assay, KRAS G12D. Conditions: Ras-Raf disruption/FRET/MOA assay; class symbols; read-out: KRAS G12D FRET data IC50. Format: biochemical. The method, boiled down: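 Ternary complex formation (Ras–compound–cyclophilin A) displacing BRAF RBD, monitored by TR-FRET. Three hours at 25° C with compound (top 30 μM final), then 1.5 h with the labelled antibodies. Lower ratio than DMSO indicates disruption; IC50 reported.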

The target of assay [4] is KRAS Q61H (Homo sapiens (Human), UniProt P01116+P62937, Q61H). Put plainly: Ras-Raf (BRAF RBD) disruption / FRET / MOA assay, KRAS Q61H. Type of assay: biochemical. The settings on record: Ras-Raf disruption/FRET/MOA assay; class symbols; read-out: KRAS Q61H FRET data IC50. The method, boiled down:
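Compounds were tested as a 10-point 3-fold dilution series from 30 μM final for their ability to drive ternary complex formation between nucleotide-loaded Ras and cyclophilin A, displacing the BRAF RBD. After 3 h at 25° C., anti-His Eu-W1024 (10 nM) and anti-GST allophycocyanin (50 nM) were added for 1.5 h. A TR-FRET ratio decrease versus DMSO gave IC50.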

In general, EC50 refers to the concentration giving half of the maximal effect. One may read the IC50 as the point on the concentration scale where inhibition reaches its midpoint.

KRAS Q61H, sequence (P01116-2 other isoform, or with tags, fused parts or gaps Q61H): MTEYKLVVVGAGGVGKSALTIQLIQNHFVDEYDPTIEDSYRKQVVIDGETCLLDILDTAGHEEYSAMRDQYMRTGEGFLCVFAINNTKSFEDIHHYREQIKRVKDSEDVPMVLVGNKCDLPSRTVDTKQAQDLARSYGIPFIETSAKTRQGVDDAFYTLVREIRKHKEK
KRAS Q61H, sequence (P62937 whole entry): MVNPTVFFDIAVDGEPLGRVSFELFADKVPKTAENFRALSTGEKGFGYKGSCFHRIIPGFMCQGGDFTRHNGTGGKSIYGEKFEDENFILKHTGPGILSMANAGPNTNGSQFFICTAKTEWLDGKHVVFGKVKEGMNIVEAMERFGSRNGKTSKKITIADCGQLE
KRAS G12D, sequence (P01116-2 other isoform, or with tags, fused parts or gaps G12D): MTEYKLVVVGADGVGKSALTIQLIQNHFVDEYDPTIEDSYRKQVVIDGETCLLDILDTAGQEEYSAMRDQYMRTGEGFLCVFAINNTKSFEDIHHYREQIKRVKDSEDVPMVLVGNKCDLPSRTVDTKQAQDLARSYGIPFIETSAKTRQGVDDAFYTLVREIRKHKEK
KRAS G12D, sequence (P62937 whole entry): as the sequence (P62937 whole entry) above

As to `CCn1c(-c2cccnc2[C@H](C)OC)c2c3cc(ccc31)N1CCO[C@@H](C[C@H](NC(=O)[C@@H](COC3CN(C(=O)C#CC(C)(C)N(C)C)C3)C(C)C)C(=O)N3CCC[C@H](N3)C(=O)OCC(C)(C)C2)C1` (atropisomer, axis not shown) [Example A377, (2R)-2-(((1-(4-(dimethylamino)-4-methylpent-2-ynoyl)azetidin-3-yl)oxy)methyl)-N-((2^2S,6^3S,4S)-1^1-ethyl-1^2-(2-((S)-1-methoxyethyl)pyridin-3-yl)-10,10-dimethyl-5,7-dioxo-6^1,6^2,6^3,6^4,6^5,6^6-hexahydro-1^1H-8-oxa-2(4,2)-morpholina-1(5,3)-indola-6(1,3)-pyridazinacycloundecaphane-4-yl)-3-methylbutanamide], the EC50 in assay [1] was less than 5000 nM. Also, the IC50 is less than 10 nM in assay [2], greater than 10000 nM in assay [3] and greater than 10000 nM in assay [4].

As for `CO[C@@H](C)c1ncccc1-c1c2c3cc(ccc3n1CC(F)(F)F)-c1csc(n1)C[C@H](NC(=O)CCOC1CN(C(=O)C#CC(C)(C)N(C)C)C1)C(=O)N1CCC[C@H](N1)C(=O)OCC(C)(C)C2` (atropisomer, axis not shown) [Example A380], the EC50 in assay [1] is less than 5000 nM. Also, the IC50 in assay [2] was less than 10 nM; in assay [3], 1000 to 10000 nM; in assay [4], 1000 to 10000 nM.

For the compound `C=CC(=O)N1C[C@H](C)N(C(=O)N(C)[C@H](C(=O)N[C@H]2Cc3nc(cs3)-c3ccc4c(c3)c(c(-c3cccnc3[C@H](C)OC)n4CC)CC(C)(C)COC(=O)[C@@H]3CCCN(N3)C2=O)C(C)C)[C@@H](C)C1` (atropisomer, axis not shown) [Example A386], the EC50 in assay [1] was less than 5000 nM. For the same compound, the IC50 in assay [2] fell in the range of 10 to 100 nM; in assay [3], 100 to 1000 nM; in assay [4], 10 to 100 nM.

As for `C=CC(=O)N1C[C@@H](C)N(C(=O)N(C)[C@H](C(=O)N[C@H]2Cc3nc(cs3)-c3ccc4c(c3)c(c(-c3cccnc3[C@H](C)OC)n4CC)CC(C)(C)COC(=O)[C@@H]3CCCN(N3)C2=O)C(C)C)[C@@H](C)C1` (atropisomer, axis not shown) [Example A387], in assay [1], the EC50 is less than 5000 nM. Also, the IC50 was 10 to 100 nM in assay [2], 100 to 1000 nM in assay [3] and 10 to 100 nM in assay [4].

On to `C=CC(=O)N1CC2(CCN(C(=O)N(C)[C@H](C(=O)N[C@H]3Cc4nc(cs4)-c4ccc5c(c4)c(c(-c4cccnc4[C@H](C)OC)n5CC)CC(C)(C)COC(=O)[C@@H]4CCCN(N4)C3=O)C(C)C)CC2)C1` (atropisomer, axis not shown) [Example A394], for which the EC50 in assay [1] is less than 5000 nM. Also, the IC50 in assay [2] was less than 10 nM; in assay [3] it was 100 to 1000 nM; in assay [4], 10 to 100 nM.

`C=CC(=O)N1CCN(C(=O)N(C)[C@H](C(=O)N[C@H]2Cc3nc(cs3)-c3ccc4c(c3)c(c(-c3cccnc3[C@H](C)OC)n4CC)CC(C)(C)COC(=O)[C@@H]3CCCN(N3)C2=O)C(C)C)CC12CC2` (atropisomer, axis not shown) [Example A417]: the EC50 in assay [1] is less than 5000 nM. In addition, the figures for the IC50 in assay [2], in assay [3] and in assay [4] were 10 to 100 nM, 100 to 1000 nM and 10 to 100 nM, respectively.

For `CCn1c(-c2cccnc2[C@H](C)OC)c2c3cc(ccc31)-c1csc(n1)C[C@H](NC(=O)CCOC1CN(C(=O)C#CC(C)(C)N(C)C)C1)C(=O)N1CCC[C@H](N1)C(=O)OCC(C)(C)C2` (atropisomer, axis not shown) [Example A427, 3-((1-(4-(dimethylamino)-4-methylpent-2-ynoyl)azetidin-3-yl)oxy)-N-((6^3S,4S,Z)-1^1-ethyl-1^2-(2-((S)-1-methoxyethyl)pyridin-3-yl)-10,10-dimethyl-5,7-dioxo-6^1,6^2,6^3,6^4,6^5,6^6-hexahydro-1^1H-8-oxa-2(4,2)-thiazola-1(5,3)-indola-6(1,3)-pyridazinacycloundecaphane-4-yl)propanamide], the EC50 in assay [1] was less than 5000 nM. The IC50 in assay [2] is less than 10 nM; in assay [3] it was greater than 10000 nM; in assay [4] it was 1000 to 10000 nM.

As to `C=CC(=O)N1CC[C@H](C(=O)N(C)[C@H](C(=O)N[C@H]2Cc3cccc(c3)-c3ccc4c(c3)c(c(-c3cc5c(nc3[C@H](C)OC)CCN(C)C5)n4CC)CC(C)(C)COC(=O)[C@@H]3CCCN(N3)C2=O)C(C)C)C1` (atropisomer, axis not shown) [Example A461], the EC50 in assay [1] was less than 5000 nM. The IC50 in assay [2] was less than 10 nM; in assay [3], greater than 10000 nM; in assay [4] it was 1000 to 10000 nM.

Take `C=CC(=O)N(C)C1CN(C(=O)N(C)[C@H](C(=O)N[C@H]2Cc3nc(cs3)-c3ccc4c(c3)c(c(-c3cccnc3[C@H](C)OC)n4CC)CC(C)(C)COC(=O)[C@@H]3CCCN(N3)C2=O)C(C)C)C1` (atropisomer, axis not shown) [Example A463]: the EC50 in assay [1] was less than 5000 nM. Moreover, the IC50 in assay [2] was less than 10 nM; in assay [3], 1000 to 10000 nM; in assay [4] it was 10 to 100 nM.

On to `C=CC(=O)N1CC[C@H](C(=O)N(C)[C@H](C(=O)N[C@H]2Cc3nc(cs3)-c3ccc4c(c3)c(c(-c3cc5c(nc3[C@H](C)OC)CCN(C)C5)n4CC)CC(C)(C)COC(=O)[C@@H]3CCCN(N3)C2=O)C(C)C)C1` (atropisomer, axis not shown) [Example A472], for which the EC50 in assay [1] is less than 5000 nM. Moreover, the half-maximal inhibitory concentration (IC50) was less than 10 nM in assay [2], greater than 10000 nM in assay [3] and 1000 to 10000 nM in assay [4].

As for `C=CC(=O)N1CC[C@H](C(=O)N(C)[C@H](C(=O)N[C@H]2Cc3cc(C)cc(c3)-c3ccc4c(c3)c(c(-c3cccnc3[C@H](C)OC)n4CC)CC(C)(C)COC(=O)[C@@H]3CCCN(N3)C2=O)C(C)C)C1` (atropisomer, axis not shown) [Example A498], the EC50 in assay [1] was less than 5000 nM. In addition, the figures for the IC50 in assay [2], in assay [3] and in assay [4] were 10 to 100 nM, greater than 10000 nM and 1000 to 10000 nM, respectively.

Turning to `C=CC(=O)N1CC[C@H](C(=O)N(C)[C@H](C(=O)N[C@H]2Cc3cccc(c3)-c3ccc4c(c3)c(c(-c3cccnc3[C@H](C)OC)n4CC#CC)CC(C)(C)COC(=O)[C@@H]3CCCN(N3)C2=O)C(C)C)C1` (atropisomer, axis not shown) [Example A531], in assay [1], the EC50 is less than 5000 nM. For the same compound, the IC50 is 10 to 100 nM in assay [2], greater than 10000 nM in assay [3] and 1000 to 10000 nM in assay [4].

As for `C=CC(=O)N1CCOC2(C1)CN(C(=O)N(C)[C@H](C(=O)N[C@H]1Cc3cccc(c3)-c3ccc4c(c3)c(c(-c3cccnc3[C@H](C)OC)n4CC(F)(F)F)CC(C)(C)COC(=O)[C@@H]3CCCN(N3)C1=O)C(C)C)C2` (atropisomer, axis not shown) [Example A538], the EC50 in assay [1] was less than 5000 nM. Further, the results for the IC50 in assay [2], in assay [3] and in assay [4] were 10 to 100 nM, 1000 to 10000 nM and 100 to 1000 nM, respectively.

For the compound `CO[C@@H](C)c1ncccc1-c1c2c3cc(ccc3n1CC(F)(F)F)-c1cccc(c1)C[C@H](NC(=O)[C@H](C(C)C)N(C)C(=O)N1CCC3(CC1)CN(C(=O)/C=C/CN(C)C)C3)C(=O)N1CCC[C@H](N1)C(=O)OCC(C)(C)C2` (atropisomer, axis not shown) [Example A555], the EC50 in assay [1] is less than 5000 nM. Further, the IC50 in assay [2] fell in the range of 10 to 100 nM; in assay [3], 100 to 1000 nM; in assay [4], 100 to 1000 nM.

`CCn1c(-c2cccnc2[C@H](C)OC)c2c3cc(ccc31)-c1cccc(c1)C[C@H](NC(=O)[C@H](C(C)C)N1CC[C@@]3(CCN(C(=O)C#C[C@H]4COCCN4C4COC4)C3)C1=O)C(=O)N1CCC[C@H](N1)C(=O)OCC(C)(C)C2` (atropisomer, axis not shown) [Example A567]: the EC50 in assay [1] is less than 5000 nM. For the same compound, the IC50 is less than 10 nM in assay [2], 1000 to 10000 nM in assay [3] and 100 to 1000 nM in assay [4].

Regarding `C=CC(=O)N1CCO[C@H]2CN(C(=O)N(C)[C@H](C(=O)N[C@H]3Cc4coc(n4)-c4ccc5c(c4)c(c(-c4cccnc4[C@H](C)OC)n5CC(F)(F)F)CC(C)(C)COC(=O)[C@@H]4CCCN(N4)C3=O)C(C)C)C[C@H]21` (atropisomer, axis not shown) [Example A574], in assay [1], the EC50 was less than 5000 nM. Besides, the IC50 is 10 to 100 nM in assay [2], greater than 10000 nM in assay [3] and 100 to 1000 nM in assay [4].

Consider `C=CC(=O)N1C[C@@H](N(C)C(=O)N(C)[C@H](C(=O)N[C@H]2Cc3nc(cs3)-c3ccc4c(c3)c(c(-c3cccnc3[C@H](C)OC)n4CC)CC(C)(C)COC(=O)[C@@H]3CCCN(N3)C2=O)C(C)C)[C@@H](C)C1` (atropisomer, axis not shown) [Example A583], for which the EC50 in assay [1] was less than 5000 nM. In addition, the IC50 in assay [2] was in the range of 10 to 100 nM; in assay [3], 1000 to 10000 nM; in assay [4] it was 100 to 1000 nM.

In the case of `C=CC(=O)N1C[C@H](C)N(C(=O)N(C)[C@H](C(=O)N[C@H]2Cc3nc(cs3)-c3ccc4c(c3)c(c(-c3cccnc3[C@H](C)OC)n4CC)CC(C)(C)COC(=O)[C@@H]3CCCN(N3)C2=O)C(C)C)CC12CC2` (atropisomer, axis not shown) [Example A586], the EC50 in assay [1] is less than 5000 nM. The IC50 in assay [2] was 10 to 100 nM; in assay [3], 1000 to 10000 nM; in assay [4], 10 to 100 nM.
